In ChEMBL document CHEMBL1127770, “2-(1-Cyclopenten-1-yl)-2-[2-(dimethylamino)ethyl]-5-(E)-benzylidene cyclopentanone hydrochlorides: a new series of moderate cytotoxic agents” (1994):

These molecules were tested on Panel (Carcinoma cell lines) (assay: Cytotoxic activity against human cancer cell lines was determined).
Type: functional

Compound | GI50 [µM] | Log TCI | LC50 [µM]
COc1ccc(/C=C2\CCC(CCN(C)C)(C3=CCCC3)C2=O)cc1.Cl (stereo unspecified) | 17.8 | -4.42 | –
COc1ccc(/C=C2\CCC(CCN(C)C)(C3=CCCC3)C2=O)cc1Br.Cl (stereo unspecified) | 4.47 | -4.89 | 35.5
CN(C)CCC1(C2=CCCC2)CC/C(=C\c2ccccc2)C1=O.Cl (stereo unspecified) | 16.2 | -4.49 | –
COc1cccc(/C=C2\CCC(CCN(C)C)(C3=CCCC3)C2=O)c1.Cl (stereo unspecified) | 15.5 | -4.52 | –
CN(C)CCC1(C2=CCCC2)CC/C(=C\c2ccccc2Cl)C1=O.Cl (stereo unspecified) | 11.7 | -4.56 | 60.3
CN(C)CCC1(C2=CCCC2)CC/C(=C\c2ccc(Cl)cc2)C1=O.Cl (stereo unspecified) | 7.08 | -4.72 | 44.7
COc1ccccc1/C=C1\CCC(CCN(C)C)(C2=CCCC2)C1=O.Cl (stereo unspecified) | 15.8 | -4.43 | 70.8
CN(C)CCC1(C2=CCCC2)CC/C(=C\c2ccc3c(c2)OCO3)C1=O.Cl (stereo unspecified) | 14.8 | -4.52 | 60.3
